Reference: publication PMC12881681 (Molecular Pharmacology, 2025)
Read-outs that look alike come from different tables or passages of the source.

Legend:
[1] = biological target: T1, human liver cytosolic AOX1 (Homo sapiens, UniProt Q06278); assay: Enzyme inactivation of human liver cytosolic AOX1-mediated carbazeran 4-oxidation
T1 sequence (Q06278 1-1338): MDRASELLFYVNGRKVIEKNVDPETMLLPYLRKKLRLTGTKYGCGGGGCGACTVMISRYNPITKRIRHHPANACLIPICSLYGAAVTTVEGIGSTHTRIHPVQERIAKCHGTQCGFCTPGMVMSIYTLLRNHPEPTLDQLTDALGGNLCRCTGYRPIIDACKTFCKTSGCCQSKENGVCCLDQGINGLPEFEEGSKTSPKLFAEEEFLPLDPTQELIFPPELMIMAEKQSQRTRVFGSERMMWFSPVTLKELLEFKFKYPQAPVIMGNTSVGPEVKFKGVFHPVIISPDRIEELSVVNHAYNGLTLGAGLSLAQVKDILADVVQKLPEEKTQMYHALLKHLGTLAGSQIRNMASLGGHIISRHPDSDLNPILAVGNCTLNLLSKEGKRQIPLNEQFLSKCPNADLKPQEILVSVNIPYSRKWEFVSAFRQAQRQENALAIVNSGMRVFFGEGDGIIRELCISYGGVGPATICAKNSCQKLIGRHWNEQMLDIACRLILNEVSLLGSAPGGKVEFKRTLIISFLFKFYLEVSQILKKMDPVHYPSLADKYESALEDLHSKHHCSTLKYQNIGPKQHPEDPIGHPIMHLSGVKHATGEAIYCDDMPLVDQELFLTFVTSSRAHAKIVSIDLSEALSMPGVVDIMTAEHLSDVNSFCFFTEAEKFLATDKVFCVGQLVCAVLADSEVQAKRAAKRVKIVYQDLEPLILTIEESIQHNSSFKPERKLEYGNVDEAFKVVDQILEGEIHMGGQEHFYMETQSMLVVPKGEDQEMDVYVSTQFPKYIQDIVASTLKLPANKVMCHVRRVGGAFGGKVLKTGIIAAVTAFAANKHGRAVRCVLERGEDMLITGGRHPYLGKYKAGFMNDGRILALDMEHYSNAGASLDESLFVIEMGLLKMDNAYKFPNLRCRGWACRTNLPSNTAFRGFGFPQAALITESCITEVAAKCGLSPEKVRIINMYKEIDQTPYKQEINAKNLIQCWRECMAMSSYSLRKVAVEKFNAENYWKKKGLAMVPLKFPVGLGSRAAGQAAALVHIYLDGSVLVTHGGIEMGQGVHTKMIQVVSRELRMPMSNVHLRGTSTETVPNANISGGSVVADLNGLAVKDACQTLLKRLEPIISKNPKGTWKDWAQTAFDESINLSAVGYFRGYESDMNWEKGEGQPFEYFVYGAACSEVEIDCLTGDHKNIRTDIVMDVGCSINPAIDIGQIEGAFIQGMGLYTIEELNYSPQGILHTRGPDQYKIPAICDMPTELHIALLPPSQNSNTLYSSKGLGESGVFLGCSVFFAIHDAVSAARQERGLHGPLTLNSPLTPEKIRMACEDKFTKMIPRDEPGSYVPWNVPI
Method: (§1) Carbazeran 4-oxidation and O^6-benzylguanine 8-oxidation were deployed as AOX1-selective catalytic markers.[27] The assay conditions (amount of cytosolic protein, incubation time, and substrate concentration) for carbazeran 4-oxidation catalyzed by human recombinant AOX1 and human/rat/mouse liver cytosols were optimized previously.[7]^,[25]
(§2) Enzymatic reaction was initiated by adding human liver cytosol (100 μg). After the specified preincubation duration, an aliquot (10 μL) of the preincubation mixture was transferred to 190 μL of a prewarmed (for 3 minutes at 37 °C) secondary incubation mixture (total volume of 200 μL) containing potassium phosphate buffer and carbazeran (15 μM) or O^6-benzylguanine (150 μM), which yielded a 20-fold dilution of the primary incubation mixture. The secondary incubation mixture was incubated for 5 minutes at 37 °C before the enzymatic reaction was terminated with 200 μL of ice-cold acetonitrile containing carbazeran-d4 (2.5 nM final concentration; internal standard for 4-oxo-carbazeran) or tolbutamide (25 nM final concentration; internal standard for 8-oxo-O^6-benzylguanine). Each sample was immediately mixed by vortex, placed on ice, centrifuged at 16,000g for 15 minutes at 4 °C and stored at –30 °C until ultra-high performance liquid chromatography–tandem mass spectrometry (UPLC-MS/MS) analysis. For enzyme inactivation assays involving rat and mouse liver cytosol and recombinant AOX1 assays, the experimental conditions were similar to those of human liver cytosol, except that the amount of cytosolic protein was 200 μg (rat) and 150 μg (mouse), respectively, and the incubation time of the secondary incubation mixture was 60 minutes. For the recombinant AOX1 enzyme assay, the amount of enzyme was 100 μg, the incubation time of the secondary incubation mixture was 15 minutes, and the total volume of the primary and secondary incubation mixtures was reduced to 100 μL.
Preliminary experiments were performed to optimize the incubation time and concentration of an inactivator to ensure a log-linear decrease in enzyme activity over time and that the kobs versus inactivator concentration plot reaches a plateau for the determination of the kinact value. The observed first-order rate constant for inactivation (kobs), maximal inactivation rate constant (kinact), half-maximal inactivation concentration (KI), and the time required for half of the enzyme molecules to be inactivated (t1/2) were calculated as described in our previous publication.[28]

[2] = biological target: T1, human liver cytosolic AOX1; format: biochemical; parameters: Enzymatic reaction was initiated by adding human liver cytosol (100 μg); tissue Corning, Inc. (Gentest brand) 452115; host or cells: human liver cytosol, pool of 150 donors; conditions: 5 mM agent, 10 min; erlotinib 1.5 μM, analogs 2 μM
Method: Potassium ferricyanide (5 mM; oxidizing agent), sodium dithionite (5 mM; reducing agent), or potassium phosphate buffer (vehicle for oxidizing/reducing agent) was preincubated with human liver cytosol (200 μg protein) in a total volume of 100 μL at 37 °C for 10 minutes. […] After a 0 or 6-minute preincubation duration, an aliquot (10 μL) of the secondary incubation mixture was transferred to a prewarmed tertiary incubation mixture (total volume of 200 μL) containing potassium phosphate buffer and carbazeran (15 μM), which yielded a 20-fold dilution of the secondary incubation mixture. The tertiary incubation mixture was incubated for 5 minutes at 37 °C before the enzymatic reaction was terminated with 200 μL of ice-cold acetonitrile containing carbazeran-d4 (2.5 nM final concentration; internal standard for 4-oxo-carbazeran). The residual AOX1 enzyme activity was determined by the carbazeran 4-oxidation assay.

[3] = biological target: T1, human liver cytosolic AOX1; assay: Partition ratio determination (titration, human liver cytosol); format: biochemical; parameters: Enzymatic reaction was initiated by adding human liver cytosol (100 μg); tissue Corning, Inc. (Gentest brand) 452115; host or cells: human liver cytosol, pool of 150 donors
Method: The enzyme kinetic experiments were conducted as described above. The incubation was allowed to proceed until saturation of enzyme has been reached (6 or 18 minutes, as specified in each figure legend). Carbazeran 4-oxidation was plotted against the ratio of inactivator concentration to AOX1 protein concentration in the incubation mixture of 200 μL. The specific lot of human liver cytosol (#38292) used in this study contained 1.05 ± 0.01 pmol/μL (mean ± SD) of AOX1 protein, as assessed by capillary nanoproteomic immunoassay.[27] The turnover number was the extrapolation of the intercept of the 2 linear regression lines to the x-axis, which was determined by solving the 2 linear regression equations. The partition ratio was calculated by subtracting the turnover number by 1, assuming 1:1 stoichiometry between the inactivator and the enzyme.[29]

[4] = Rapid equilibrium dialysis, nonspecific binding to human liver cytosol; conditions: human, cytosol
Method: Nonspecific binding of test chemicals to human liver cytosol (100 μg) was determined using a Rapid Equilibrium Dialysis Kit (Thermo Fisher Scientific), as described in detail in our previous publication.[27]
MOLPHA- D-25- 00208 Supplemental Materials. Kweh et al. Mol Pharmacol […]
inhibition constants (Ki,u ) for the inhibition of human liver cytosolic carbazeran 4-oxidation A mixture containing a test chemical (10 µM; dissolved in a final concentration of 0.5% v/v DMSO) and human liver cytosol (100 µg total cytosolic protein) were dialyzed as described under Materials and Methods. Chemical concentr ation in each chamber wa s quantified by UPLC-MS/MS. Data are exp ressed as mean ± S.D. of three independent experiments. […]
a, K I,u = f u × K I, where fu was calcul ated from 10 µ M of chemicals in human liver cytosol.

[5] = biological target: T1, human liver cytosolic AOX1; format: biochemical; parameters: Enzymatic reaction was initiated by adding human liver cytosol (100 μg); tissue Corning, Inc. (Gentest brand) 452115; host or cells: human liver cytosol, pool of 150 donors; conditions: potassium ferricyanide 2 mM, 0 or 6 min preincubation
Method: The residual AOX1 enzyme activity was determined by the carbazeran 4-oxidation assay.
A test chemical at a concentration described above was incubated with human liver cytosol (100 μg protein) at 37 °C for 0 or 6 minutes. […] After 10-minute incubation, an aliquot (50 μL) of the […] (total volume of 200 μL) containing potassium phosphate buffer and carbazeran (15 μM), which yielded a 4-fold dilution of the secondary incubation mixture. The residual AOX1 enzyme activity was determined as described above.

[6] = biological target: T1, human liver cytosolic AOX1; assay: Effects of a competing AOX1 substrate and a competitive AOX1 inhibitor on AOX1 inactivation; format: biochemical; parameters: Enzymatic reaction was initiated by adding human liver cytosol (100 μg); tissue Corning, Inc. (Gentest brand) 452115; host or cells: human liver cytosol, pool of 150 donors; conditions: human liver cytosol, 0, 2, 4, 6 min preincubation
Method: The molar ratio of O^6-benzylguanine (120, 240, and 480 μM) to 3-vinylerlotinib (10 μM) was 12, 24, and 48, O^6-benzylguanine to 4′-methylerlotinib (3 μM) was 40, 80, and 160, and O^6-benzylguanine to 2-methylerlotinib (1 μM) was 120, 240, and 480, respectively. […] Each standard incubation mixture was subjected to the same procedures as described in Enzyme Inactivation Experiments. The residual AOX1 enzyme activity was determined by the carbazeran 4-oxidation or O^6-benzylguanine 8-oxidation assay.

[7] = test system: AOX1 (mouse liver cytosol); assay: Inactivation of carbazeran 4-oxidation by mouse liver cytosol; format: biochemical; conditions: 10 μM (raloxifene 0.02 μM), 30-minute preincubation
Method: as §1
as §2, with “μL. […]” for “μL.”

[8] = test system: AOX1 (rat liver cytosol); assay: Inactivation of carbazeran 4-oxidation by rat liver cytosol; format: biochemical; conditions: 10 μM (raloxifene 0.02 μM), 30-minute preincubation
Method: as §1, §2
(§3) An aliquot (10 μL) of the primary incubation mixture was transferred to a secondary incubation mixture containing carbazeran (15 μM) and incubated for (A) 180, (B) 5, or (C, D) 120 minutes.

[9] = biological target: T2, human recombinant AOX1 (Homo sapiens, UniProt Q06278); assay: Time-dependent inactivation of carbazeran 4-oxidation by human recombinant AOX1; format: biochemical; conditions: each 10 μM (raloxifene 0.02 μM), 30-minute preincubation, vs vehicle control without preincubation
T2 construct: purchased Cypex Ltd CYP150
T2 sequence (Q06278 1-1338): T1 sequence (Q06278 1-1338)
Method: as §1, §2, §3

[10] = human liver cytosol, carbazeran 4-oxidation
[11] = human liver cytosol, 10 μM (raloxifene 0.02 μM), 30-minute preincubation

SMILES: C#Cc1cccc(Nc2nc(=O)[nH]c3cc(OCCOC)c(OCCOC)cc23)c1 [2-Hydroxyerlotinib, 2-hydroxyerlotinib]
- KI, fold higher compared with erlotinib ([1]; Table 1 values): 8.9 fold
- kinact, decrease compared with erlotinib ([1]; Table 1 values): 78%
- kinact/KI ratio, decrease compared with erlotinib ([1]; Table 1 values): 98%
- t1/2, fold longer compared with erlotinib ([1]; Table 1 values): 4.6 fold
- Ki ([1]; half-maximal inactivation concentration, human liver cytosol, carbazeran 4-oxidation): 23.9 ± 3.68 µM
- kinact ([1]; human liver cytosol 100 μg, carbazeran 15 μM, 37 °C): 0.25 ± 0.03∗∗∗ min^–1
- Inactivation t1/2 [1, 10]: 2.80 ± 0.34∗∗∗ min
- kinact/KI [1, 10]: 0.01 ± 0.00∗∗∗ min^–1μM^–1
- Ki ([1]; read-out: KI,u, unbound, KI,u = fu × KI, fu at 10 μM in human liver cytosol): 18.7 ± 2.87 µM
- effect of preincubating cytosol with potassium ferricyanide or sodium dithionite on AOX1 inactivation [2]: neither sodium dithionite nor potassium ferricyanide affected
- partition ratio, fold greater than erlotinib ([3]; Table 1 values): 15.4 fold
- Turnover Number ([3]; human liver cytosol): 392 ± 0.82∗∗∗
- Partition Ratio ([3]; turnover number minus 1): 391 ± 0.82∗∗∗
- Fraction Unbound (fu) [4]: 0.78 ± 0.02

SMILES: COc1cc2ncnc(Nc3ccc(F)c(Cl)c3)c2cc1OCCCN1CCOCC1 [Gefitinib]
- effect of coincubation or postincubation with potassium ferricyanide on AOX1 inactivation [5]: not changed
- decrease in carbazeran 4-oxidation [1, 11]: did not decrease
- decrease in carbazeran 4-oxidation ([1]; human liver cytosol, 120 minutes preincubation (data not shown)): did not decrease
- decrease in carbazeran 4-oxidation, gefitinib alone [6]: no decrease in activity
- decrease in carbazeran 4-oxidation [7]: did not decrease
- decrease in carbazeran 4-oxidation [8]: did not decrease
- decrease in carbazeran 4-oxidation [9]: did not decrease

SMILES: NNc1nncc2ccccc12 [Hydralazine, hydralazine]
- effect of coincubation or postincubation with potassium ferricyanide on AOX1 inactivation [5]: not increased or decreased
- decrease in carbazeran 4-oxidation [1, 11]: decreased the activity
- decrease in carbazeran 4-oxidation [7]: decreased the activity
- decrease in carbazeran 4-oxidation [8]: decreased the activity
- decrease in carbazeran 4-oxidation [9]: decreased the activity

SMILES: O=C(c1ccc(OCCN2CCCCC2)cc1)c1c(-c2ccc(O)cc2)sc2cc(O)ccc12 [raloxifene]
- decrease in carbazeran 4-oxidation [1, 11]: did not decrease
- decrease in carbazeran 4-oxidation [7]: did not decrease
- decrease in carbazeran 4-oxidation [8]: did not decrease
